# From patent publication US20070248646A1, “Use of azurocidin inhibitors in prevention and treatment of ocular vascular leakage” (priority 2006, published 2007)
# Tested on: choroidal neovascular leakage
# Test: Laser-induced CNV leakage by fluorescein angiography (model of AMD)
# Assay type: in vivo, mice
# Conditions: 50,000KIU/day, i.p.
# Source text: Laser-induced CNV is a VEGF-dependent model for exudative changes that occur in AMD. In this model, disruption of an animal's Bruch's membrane by laser results in formation of CNV lesions. In these lesions, neovascular capillaries originate within the choroid and extend through the disrupted Bruch's membrane into the outer nuclear layer of the retina. The formation of these leaky capillaries is mainly attributed to changes in the level of angiogenic growth factors such as VEGF.
# To perform the procedure, the pupils were dilated with 1-2 drops of 1% tropicamide. Subsequently, 4-6 photocoagulation lesions were delivered to each eye, using a Coherent argon laser (532 nm wavelength, 50 μm spot size, 0.1 s duration, 120-160 mW; model 920; Coherent, Palo Alto, Calif.) between the retinal vessels in a peripapillary distribution in each fundus, using a slit lamp delivery system and a cover glass as a contact lens. The genesis of a bubble at the time of laser treatment confirmed the rupture of the Bruch's membrane. […] Images were captured on a computer (using the IMAGEnet for Windows software, Topcon, Paramus, N.J.). Two masked evaluators performed the grading of the retinal images. A choroidal neovascular membrane is considered to be present if there was early hyperfluorescence followed by later leakage at the site where the laser injury is induced. […]
substance,measurement,setting,value
aprotinin,CNV leakage on fluorescein angiography compared to vehicle treated controls,day 7 post injury,substantially smaller
same,CNV lesion size on fluorescein angiography,day 14 post injury,further reduced lesion size
